From ChEMBL document CHEMBL1146036, “Structural determinants of opioid activity in derivatives of 14-aminomorphinones: effect of substitution in the aromatic ring of cinnamoylaminomorphinones and codeinones” (J Med Chem, 2006)

Tests used:
Mus musculus [1] = test: Agonist activity in sc dosed mouse by phenylquinone abdominal stretching assay; format: functional; conditions: Abdomen
Mu-type opioid receptor [2] = target: T1, Mu-type opioid receptor (Homo sapiens, UniProt P35372); test: Reversal of stimulation of [35S]GTP-gamma-S binding to human recombinant MOR transfected in CHO cells relative to DAMGO; format: functional, cell-based
T1 sequence (P35372 whole entry): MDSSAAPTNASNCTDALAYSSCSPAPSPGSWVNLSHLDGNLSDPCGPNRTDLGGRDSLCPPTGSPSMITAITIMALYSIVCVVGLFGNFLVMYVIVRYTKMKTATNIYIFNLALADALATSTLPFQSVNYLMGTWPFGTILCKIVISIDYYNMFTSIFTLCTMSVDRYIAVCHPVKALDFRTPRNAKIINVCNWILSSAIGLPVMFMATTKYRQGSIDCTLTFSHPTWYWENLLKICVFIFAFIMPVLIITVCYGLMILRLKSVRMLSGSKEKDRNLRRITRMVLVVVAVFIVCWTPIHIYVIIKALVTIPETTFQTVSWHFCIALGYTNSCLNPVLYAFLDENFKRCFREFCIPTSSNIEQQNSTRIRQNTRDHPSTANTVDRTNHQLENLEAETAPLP

Mu-type opioid receptor [3] = target: T1, Mu-type opioid receptor; test: Displacement of [3H]DAMGO from human recombinant MOR expressed in CHO cells; format: cell-based
Mus musculus [4] = test: Agonist activity in sc dosed mouse by tail flick assay; format: functional
[5] = target: T2, Kappa-type opioid receptor (Homo sapiens, UniProt P41145); test: Activity at human recombinant KOR transfected in CHO cells assessed as reversal of stimulation of [35S]GTPgammaS binding; format: functional, cell-based; conditions: filed as antagonist
T2 sequence (P41145 whole entry): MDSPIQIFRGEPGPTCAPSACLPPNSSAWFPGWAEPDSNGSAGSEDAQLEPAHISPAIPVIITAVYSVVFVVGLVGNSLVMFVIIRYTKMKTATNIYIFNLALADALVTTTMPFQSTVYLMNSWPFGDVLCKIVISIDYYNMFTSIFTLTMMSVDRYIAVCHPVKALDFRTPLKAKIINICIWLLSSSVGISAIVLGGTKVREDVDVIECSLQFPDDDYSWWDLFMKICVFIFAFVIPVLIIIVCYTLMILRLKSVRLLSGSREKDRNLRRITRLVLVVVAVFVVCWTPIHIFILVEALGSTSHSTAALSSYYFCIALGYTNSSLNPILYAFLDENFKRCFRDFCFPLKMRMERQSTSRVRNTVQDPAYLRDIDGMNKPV

[6] = target: T3, Delta-type opioid receptor (Homo sapiens, UniProt P41143); test: Displacement of [3H]Cl-DPDPE from human recombinant DOR expressed in CHO cells; format: cell-based
T3 sequence (P41143 whole entry): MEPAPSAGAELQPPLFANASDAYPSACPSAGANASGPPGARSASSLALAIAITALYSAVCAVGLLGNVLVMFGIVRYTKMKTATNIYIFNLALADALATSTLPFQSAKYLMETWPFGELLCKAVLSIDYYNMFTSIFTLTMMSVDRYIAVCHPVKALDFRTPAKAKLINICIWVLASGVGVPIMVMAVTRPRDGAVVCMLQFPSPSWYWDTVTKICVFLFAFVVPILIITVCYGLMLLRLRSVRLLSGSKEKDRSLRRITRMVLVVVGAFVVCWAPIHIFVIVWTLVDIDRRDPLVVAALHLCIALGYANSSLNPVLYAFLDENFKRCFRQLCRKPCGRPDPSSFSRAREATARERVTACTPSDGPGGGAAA

[7] = target: T3, Delta-type opioid receptor; test: Activity at human recombinant DOR transfected in CHO cells assessed as reversal of stimulation of [35S]GTP-gamma-S binding; format: functional, cell-based
Mu-type opioid receptor [8] = target: T1, Mu-type opioid receptor; test: Activity at human recombinant MOR transfected in CHO cells assessed as reversal of stimulation of [35S]GTP-gamma-S binding; format: functional, cell-based; conditions: filed as antagonist
[9] = target: T3, Delta-type opioid receptor; conditions: CHO
Description: Reversal of stimulation of [35S]GTP-gamma-S binding to human recombinant DOR transfected in CHO cells relative to DPDPE

[10] = target: T2, Kappa-type opioid receptor; conditions: CHO
Description: Reversal of stimulation of [35S]GTPgammaS binding to human recombinant KOR transfected in CHO cells relative to U69593

[11] = target: T2, Kappa-type opioid receptor; test: biochemical; format: cell-based, CHO
Description: Displacement of [3H]U-69593 from human recombinant KOR expressed in CHO cells

Mus musculus [12] = test: Antagonist activity against morphine-induced antinociception in sc dosed mouse by tail flick assay; format: functional
Mus musculus [13] = test: Antagonist activity against morphine-induced antinociception in sc dosed mouse by hot water tail withdrawal assay at 32 mg/kg, sc; format: functional; design: scale not given: the % may be the effect or the level left; conditions: route subcutaneous
Mus musculus [14] = test: Agonist activity in mouse by hot water tail withdrawal assay at 32 mg/kg, sc; format: functional; conditions: route subcutaneous
Mu-type opioid receptor [15] = target: T1, Mu-type opioid receptor; test: Stimulation of [35S]GTPgammaS binding to human recombinant MOR; format: functional
Mu-type opioid receptor [16] = target: Mu-type opioid receptor (Cavia porcellus, UniProt P97266); test: Binding affinity to MOR in guinea pig brain membrane; format: cell membranes
Mu-type opioid receptor (Cavia porcellus, UniProt P97266), sequence (P97266 whole entry): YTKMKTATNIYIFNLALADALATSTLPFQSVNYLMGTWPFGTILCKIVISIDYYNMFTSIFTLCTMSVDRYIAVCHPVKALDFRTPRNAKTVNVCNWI

[17] = target: T3, Delta-type opioid receptor; test: Stimulation of [35S]GTPgammaS binding to human recombinant DOR relative to DPDPE; format: functional
Mus musculus [18] = test: Agonist activity in sc dosed mouse by hot water tail withdrawal assay at 1 mg/kg, sc; format: functional; conditions: route subcutaneous
[19] = target: Kappa-type opioid receptor (Cavia porcellus, UniProt P41144); test: Binding affinity to KOR in guinea pig brain membrane; format: cell membranes
Kappa-type opioid receptor (Cavia porcellus, UniProt P41144), sequence (P41144 whole entry): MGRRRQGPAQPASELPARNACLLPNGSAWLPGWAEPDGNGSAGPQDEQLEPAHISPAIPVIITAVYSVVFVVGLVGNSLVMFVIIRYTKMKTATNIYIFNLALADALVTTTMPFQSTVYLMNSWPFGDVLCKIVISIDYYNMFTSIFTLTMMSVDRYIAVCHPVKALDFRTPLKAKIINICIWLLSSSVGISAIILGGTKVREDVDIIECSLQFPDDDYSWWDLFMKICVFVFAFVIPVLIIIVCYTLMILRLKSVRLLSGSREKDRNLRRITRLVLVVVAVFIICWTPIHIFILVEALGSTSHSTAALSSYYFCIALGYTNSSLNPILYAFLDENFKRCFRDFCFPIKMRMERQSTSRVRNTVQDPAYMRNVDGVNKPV

[20] = target: T3, Delta-type opioid receptor; test: Stimulation of [35S]GTP-gamma-S binding to human recombinant DOR; format: functional
[21] = target: T2, Kappa-type opioid receptor; test: Stimulation of [35S]GTP-gamma-S binding to human recombinant KOR; format: functional
Mus musculus [22] = test: Agonist activity in mouse by phenylquinone abdominal stretching assay at 1 mg/kg, sc; format: functional; conditions: Abdomen, route subcutaneous
Mus musculus [23] = test: Antagonist activity against morphine-induced antinociception in sc dosed mouse by tail flick assay at 3 mg/kg, sc; format: functional; conditions: route subcutaneous
Mus musculus [24] = test: Agonist activity in mouse by phenylquinone abdominal stretching assay at 0.3 mg/kg, sc; format: functional; conditions: Abdomen, route subcutaneous
Mus musculus [25] = test: Agonist activity in sc dosed mouse by hot water tail withdrawal assay at 10 mg/kg, sc; format: functional; conditions: route subcutaneous
Mus musculus [26] = test: Agonist activity in mouse by phenylquinone abdominal stretching assay at 30 mg/kg, sc; format: functional; conditions: Abdomen, route subcutaneous

Row | SMILES | ED50 (Mus musculus [1]) | Ki (Mu-type opioid receptor [3]) | ED50 (Mus musculus [4]) | Ki [6] | Ki [11] | AD50 (Mus musculus [12]) | Activity (Mus musculus [13]) | Activity (Mus musculus [14]) | EC50 (Mu-type opioid receptor [15]) | Activity [17] | EC50 [20] | EC50 [21] | other results
1 | Cc1ccc(CCC(=O)N[C@@]23CCC(=O)[C@@H]4Oc5c(O)ccc6c5[C@@]42CCN(C)[C@@H]3C6)cc1 | 0.09 mg/kg | 0.35 nM | 0.5 mg/kg | 1.25 nM | 0.57 nM | >30 mg/kg |  |  |  |  |  |  | Ke (Mu-type opioid receptor [2]): 0.32 nM; Activity [5]: Antagonist; Activity ([7]; filed as partial agonist): Partial agonist; Activity (Mu-type opioid receptor [8]): Antagonist; Ke ([9]; filed as partial agonist): Partial agonist; Ke [10]: 4.9 nM
2 | O=C(/C=C/c1ccc([N+](=O)[O-])cc1)N[C@@]12CCC(=O)[C@@H]3Oc4c(O)ccc5c4[C@@]31CCN(CC1CC1)[C@@H]2C5 |  |  |  |  |  |  | >90% | 40% |  |  |  |  | 
3 | COc1ccc2c3c1O[C@H]1C(=O)CC[C@@]4(NC(=O)/C=C/c5ccccc5C)[C@@H](C2)N(CC2CC2)CC[C@]314 | 0.03 mg/kg |  | 0.03 mg/kg |  |  | >30 mg/kg | 10% |  | 2.6 nM | 39% | 20.9 nM | 1.8 nM | Ki (Mu-type opioid receptor [16]): 0.2 nM; Activity (Mus musculus [18]): >90%; Ki [19]: 2.1 nM
4 | COc1ccc2c3c1O[C@H]1C(=O)CC[C@@]4(NC(=O)/C=C/c5ccc(Cl)cc5)[C@@H](C2)N(C)CC[C@]314 | 0.02 mg/kg | 0.6 nM | 0.04 mg/kg | 1 nM |  | >30 mg/kg |  |  | 0.9 nM | 50% | 5 nM |  | 
5 | O=C(/C=C/c1ccccc1Cl)N[C@@]12CCC(=O)[C@@H]3Oc4c(O)ccc5c4[C@@]31CCN(CC1CC1)[C@@H]2C5 |  | 0.71 nM |  | 1.3 nM | 2.4 nM |  | 65% | 0% |  |  |  |  | Ke (Mu-type opioid receptor [2]): 0.45 nM; Ke [9]: 0.67 nM; Ke [10]: 0.38 nM
6 | COc1ccc2c3c1O[C@H]1C(=O)CC[C@@]4(NC(=O)/C=C/c5ccc(Cl)cc5)[C@@H](C2)N(CC2CC2)CC[C@]314 | 0.2 mg/kg |  | > 30 mg/kg | 4.8 nM |  | >6 mg/kg | 65% | 0% |  |  |  |  | Ke [9]: 7.2 nM
7 | Cc1ccc(/C=C/C(=O)N[C@@]23CCC(=O)[C@@H]4Oc5c(O)ccc6c5[C@@]42CCN(C)[C@@H]3C6)cc1 |  | 0.34 nM | > 30 mg/kg | 4 nM | 1.5 nM | 0.6 mg/kg |  |  |  |  |  |  | Ke (Mu-type opioid receptor [2]): 0.3 nM; Activity [5]: Antagonist; Activity ([7]; filed as antagonist): Antagonist; Activity (Mu-type opioid receptor [8]): Antagonist; Ke [9]: 2.2 nM; Ke [10]: 4.1 nM; inhibition in vivo at 1 mg/kg (Mus musculus [22]): 57%
8 | Cc1ccccc1/C=C/C(=O)N[C@@]12CCC(=O)[C@@H]3Oc4c(O)ccc5c4[C@@]31CCN(C)[C@@H]2C5 | 0.03 mg/kg | 0.21 nM | 0.08 mg/kg | 0.11 nM | 0.23 nM | >30 mg/kg |  |  | 0.04 nM | 71% | 0.4 nM | 0.2 nM | 
9 | COc1ccc2c3c1O[C@H]1C(=O)CC[C@@]4(NC(=O)/C=C/c5ccccc5Cl)[C@@H](C2)N(C)CC[C@]314 |  | 0.68 nM |  | 0.58 nM | 2.5 nM |  |  |  | 0.5 nM | 110% | 2.2 nM | 8.5 nM | 
10 | COc1ccc2c3c1O[C@H]1C(=O)CC[C@@]4(NC(=O)/C=C/c5ccc(C)cc5)[C@@H](C2)N(C)CC[C@]314 | 0.4 mg/kg | 0.49 nM | 0.06 mg/kg | 2.9 nM | 9.9 nM | >30 mg/kg |  |  | 2.5 nM | 86% | 76 nM | 84 nM | 
11 | Cc1ccccc1/C=C/C(=O)N[C@@]12CCC(=O)[C@@H]3Oc4c(O)ccc5c4[C@@]31CCN(CC1CC1)[C@@H]2C5 | 3.17 mg/kg | 0.72 nM | > 30 mg/kg | 1.25 nM | 1.5 nM |  | 65% | 0% |  |  |  |  | Ke (Mu-type opioid receptor [2]): 0.29 nM; Ke [9]: 0.4 nM; Ke [10]: 0.16 nM; inhibition in vivo at 3 mg/kg (Mus musculus [23]): 50%
12 | CN1CC[C@]23c4c5ccc(O)c4O[C@H]2C(=O)CC[C@@]3(NC(=O)/C=C/c2ccc([N+](=O)[O-])cc2)[C@H]1C5 |  | 0.2 nM |  | 0.54 nM | 5.5 nM |  |  |  |  |  |  |  | Ke (Mu-type opioid receptor [2]): 0.13 nM; Ke [9]: 1.4 nM; Ke [10]: 3.3 nM
13 | COc1ccc2c3c1O[C@H]1C(=O)CC[C@@]4(NC(=O)/C=C/c5ccc(C)cc5)[C@@H](C2)N(CC2CC2)CC[C@]314 | 0.1 mg/kg |  | > 30 mg/kg |  |  | 5.7 mg/kg | 40% | 10% |  |  |  |  | 
14 | CN1CC[C@]23c4c5ccc(O)c4O[C@H]2C(=O)C=C[C@@]3(NC(=O)/C=C/c2ccc(Cl)cc2)[C@H]1C5 |  |  | 0.5 mg/kg |  |  | >30 mg/kg |  |  |  |  |  |  | 
15 | COc1ccc2c3c1O[C@H]1C(=O)CC[C@@]4(NC(=O)/C=C/c5ccccc5)[C@@H](C2)N(CC2CC2)CC[C@]314 |  |  |  |  |  |  | 65% | 40% |  |  |  |  | 
16 | CN1CC[C@]23c4c5cccc4O[C@H]2C(=O)CC[C@@]3(NC(=O)/C=C/c2ccccc2Cl)[C@H]1C5 | 0.04 mg/kg |  | 0.12 mg/kg |  |  | >30 mg/kg |  |  | 0.04 nM |  | 0.1 nM | 0.1 nM | 
17 | O=C(/C=C/c1ccccc1)N[C@@]12CCC(=O)[C@@H]3Oc4c(O)ccc5c4[C@@]31CCN(CC1CC1)[C@@H]2C5 |  |  | > 30 mg/kg |  |  | 1.3 mg/kg | 40% | 0% |  |  |  |  | inhibition in vivo at 0.3 mg/kg (Mus musculus [24]): 66%
18 | COc1ccc2c3c1O[C@H]1C(=O)CC[C@@]4(NC(=O)/C=C/c5ccc([N+](=O)[O-])cc5)[C@@H](C2)N(CC2CC2)CC[C@]314 |  |  |  |  |  |  | 40% |  |  |  |  |  | Activity (Mus musculus [25]): >90%
19 | COc1ccc2c3c1O[C@H]1C(=O)CC[C@@]4(NC(=O)/C=C/c5ccccc5[N+](=O)[O-])[C@@H](C2)N(CC2CC2)CC[C@]314 |  |  |  |  |  |  |  | 40% |  |  |  |  | 
20 | COc1ccc2c3c1O[C@H]1C(=O)CC[C@@]4(NC(=O)/C=C/c5ccccc5C)[C@@H](C2)N(C)CC[C@]314 |  | 0.4 nM |  | 0.42 nM | 2.3 nM |  |  |  | 0.5 nM | 108% | 4.6 nM | 5.6 nM | 
21 | COc1ccc2c3c1O[C@H]1C(=O)CC[C@@]4(NC(=O)/C=C/c5ccccc5Cl)[C@@H](C2)N(CC2CC2)CC[C@]314 |  |  |  |  |  |  | 10% |  | 3.8 nM | 36% | 17.5 nM | 9 nM | Ki (Mu-type opioid receptor [16]): 0.6 nM; Activity (Mus musculus [25]): >90%; Ki [19]: 2.4 nM
22 | O=C(/C=C/c1ccc(Cl)cc1)N[C@@]12CCC(=O)[C@@H]3Oc4c(O)ccc5c4[C@@]31CCN(CC1CC1)[C@@H]2C5 [CLOCINNAMOX] |  | 2.98 nM | > 30 mg/kg | 2.7 nM | 1.4 nM | 0.12 mg/kg | >90% | 0% |  |  |  |  | Ke (Mu-type opioid receptor [2]): 0.53 nM; inhibition in vivo at 30 mg/kg (Mus musculus [26]): 69%; Ke [9]: 0.19 nM; Ke [10]: 0.1 nM
